# From US20060094765A1, “Use of a sri and vitamin b6 for the treatment of neurological and mental disorders” (Pantarhei Bioscience B.V., priority 2002, published 2006)
# Columns and labels:
# [1] = tested on: chronically, mildly stressed rats; assay: Chronic mild stress (CMS) model of depression, sucrose consumption; type: in vivo, Male Wistar rats; conditions: stressed rats, n=8, alone or with pyridoxine 10 mg/kg
# From the text: (§1) Chronic mild stress (CMS), a well-validated preclinical model of depression (Willner, 1997, Validity, reliability and utility of the chronic mild stress model of depression: a 10-year review and evaluation. Psychopharmacology, 134, 319-329, […] et al., 2002, Preclinical models: status of basic research in depression, Soc. Biol. Psych., 52, 503-528), was used to study the effects of combined therapy of SRI with pyridoxine on responder rate and the time to achieve a full drug response ('onset of action') as compared to treatment with SRI alone. Citalopram, as an example of a SRI, was combined with either pyridoxine or vehicle and administered to chronically, mildly stressed rats during a 5-week treatment schedule. Consumption of sucrose solution after fasting, which a commonly accepted measure of anhedonia, i.e. inability to experience pleasure, was chosen for readout, since this is a core symptom of human depressive disorders. Male Wistar rats were brought into the laboratory two months before the start of the experiment for acclimatization and training (see below). During this period, the animals were singly housed and were maintained on a 12-h light/dark cycle (lights on at 08.00) at a constant temperature of 22±2° C. and humidity (55±5%). Food pellets (containing an optimal level of 1 mg/kg pyridoxine) and water were freely available, with the exception of the deprivation procedure as described below. During a period of 5 weeks, rats were trained to consume a 1% sucrose solution. Training consisted of ten 1-h baseline tests (twice weekly) in which sucrose was presented, in the home cage, following 14 h of food and water deprivation. Sucrose intake was measured by weighing pre-weighed bottles containing the sucrose solution, at the end of the test. Subsequently, sucrose consumption was monitored, under similar conditions, at weekly intervals throughout the whole experiment. […] Mean values in sucrose consumption during stress and subsequently the 5 weeks of vehicle and drug treatment in control and stressed animals were calculated. […]
# [2] = as above; type: in vivo, Male Wistar rats; conditions: unstressed control rats; citalopram 2.5 or 5.0 mg/kg, alone or with pyridoxine 10 mg/kg, i.p. daily, 5 weeks
# From the text: as §1
smiles,measurement,setting,value
CN(C)CCCC1(c2ccc(F)cc2)OCc2cc(C#N)ccc21 (stereo not drawn) [citalopram],responder rate (rats exhibiting increased sucrose intake),[1]; citalopram 2.5 mg/kg i.p. daily for 5 weeks,50%
same,responder rate (rats exhibiting increased sucrose intake),[1]; citalopram 5.0 mg/kg i.p. daily for 5 weeks,62.5%
same,effect on sucrose intake in control animals,[2],no significant effect
